Test results published in PubChem BioAssay (NCI).
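Compound exposure: 48 hours, 5 concentrations, 96-well plates. GI50 is the concentration that inhibits growth by half. The concentration for full growth arrest is given as TGI.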

What was measured:
Assay in all cases: NCI tumour cell line growth inhibition, 48 h
786-0 renal = system: 786-0 renal
A498 renal = system: A498 renal
A549 NSCLC = system: A549 NSCLC
ACHN renal = system: ACHN renal
BT-549 breast = system: BT-549 breast
CAKI-1 renal = system: CAKI-1 renal
COLO 205 colon = system: COLO 205 colon
DU-145 prostate = system: DU-145 prostate
EKVX NSCLC = system: EKVX NSCLC
HCC-2998 colon = system: HCC-2998 colon
HCT-116 colon = system: HCT-116 colon
HCT-15 colon = system: HCT-15 colon
HL-60(TB) leukemia = system: HL-60(TB) leukemia
HOP-62 NSCLC = system: HOP-62 NSCLC
HOP-92 NSCLC = system: HOP-92 NSCLC
HS 578T breast = system: HS 578T breast
HT29 colon = system: HT29 colon
IGROV1 ovarian = system: IGROV1 ovarian
K-562 leukemia = system: K-562 leukemia
KM12 colon = system: KM12 colon
LOX IMVI melanoma = system: LOX IMVI melanoma
M14 melanoma = system: M14 melanoma
MALME-3M melanoma = system: MALME-3M melanoma
MCF7 breast = system: MCF7 breast
MDA-MB-231 breast = system: MDA-MB-231 breast
MDA-MB-435 = system: MDA-MB-435
MDA-N = system: MDA-N
MOLT-4 leukemia = system: MOLT-4 leukemia
NCI-H226 lung = system: NCI-H226 lung
NCI-H23 lung = system: NCI-H23 lung
NCI-H460 lung = system: NCI-H460 lung
NCI-H522 lung = system: NCI-H522 lung
NCI/ADR-RES ovarian = system: NCI/ADR-RES ovarian
OVCAR-3 ovarian = system: OVCAR-3 ovarian
OVCAR-4 ovarian = system: OVCAR-4 ovarian
OVCAR-5 ovarian = system: OVCAR-5 ovarian
OVCAR-8 ovarian = system: OVCAR-8 ovarian
PC-3 prostate = system: PC-3 prostate
RPMI-8226 leukemia = system: RPMI-8226 leukemia
RXF 393 renal = system: RXF 393 renal
SF-268 CNS = system: SF-268 CNS
SF-295 CNS = system: SF-295 CNS
SF-539 CNS = system: SF-539 CNS
SK-MEL-2 melanoma = system: SK-MEL-2 melanoma
SK-MEL-28 melanoma = system: SK-MEL-28 melanoma
SK-MEL-5 melanoma = system: SK-MEL-5 melanoma
SK-OV-3 ovarian = system: SK-OV-3 ovarian
SN12C renal = system: SN12C renal
SNB-19 CNS = system: SNB-19 CNS
SNB-75 CNS = system: SNB-75 CNS
SR leukemia = system: SR leukemia
SW-620 colon = system: SW-620 colon
T-47D breast = system: T-47D breast
TK-10 renal = system: TK-10 renal
U251 CNS = system: U251 CNS
UACC-257 melanoma = system: UACC-257 melanoma
UACC-62 melanoma = system: UACC-62 melanoma
UO-31 renal = system: UO-31 renal
CCRF-CEM leukemia = system: CCRF-CEM leukemia

`CC1OC(OC2CC(O)C3(CO)C4C(O)CC5(C)C(C6=CC(=O)OC6)CCC5(O)C4CCC3(O)C2)C(O)C(O)C1O` (configuration not stated) gave a GI50 (786-0 renal) of under 12.9 nM, a TGI (786-0 renal) of under 0.0179 µM and a GI50 (A498 renal) of under 18.3 nM. It also gave a TGI (A498 renal) of 0.102 µM, a GI50 (A549 NSCLC) of under 10.9 nM and a TGI (A549 NSCLC) of under 0.0138 µM. The GI50 (ACHN renal) was 10 nM, the TGI (ACHN renal) was 0.0191 µM and the GI50 (BT-549 breast) was under 12.9 nM. It also gave a TGI (BT-549 breast) of 0.0208 µM, a GI50 (CAKI-1 renal) of under 14.6 nM and a TGI (CAKI-1 renal) of 0.024 µM. For the same molecule, the GI50 (COLO 205 colon) was 23.9 nM, the TGI (COLO 205 colon) was 0.116 µM and the GI50 (DU-145 prostate) was under 12 nM. For the same molecule, the TGI (DU-145 prostate) was under 0.0152 µM, the GI50 (EKVX NSCLC) was under 10.7 nM and the TGI (EKVX NSCLC) was under 0.0142 µM. It also gave a GI50 (HCC-2998 colon) of 60.6 nM, a TGI (HCC-2998 colon) of 0.204 µM and a GI50 (HCT-116 colon) of under 13.9 nM. It also gave a TGI (HCT-116 colon) of 0.0209 µM, a GI50 (HCT-15 colon) of under 13.3 nM and a TGI (HCT-15 colon) of 0.024 µM. For the same molecule, the TGI (HL-60(TB) leukemia) was 0.235 µM, the GI50 (HOP-62 NSCLC) was under 11.2 nM and the TGI (HOP-62 NSCLC) was under 0.0146 µM. The GI50 (HOP-92 NSCLC) was 21.6 nM, the TGI (HOP-92 NSCLC) was 0.0791 µM and the GI50 (HS 578T breast) was under 15.5 nM. For the same molecule, the TGI (HS 578T breast) was 0.304 µM, the GI50 (HT29 colon) was under 14.7 nM and the TGI (HT29 colon) was 0.102 µM. It also gave a GI50 (IGROV1 ovarian) of under 16.1 nM, a TGI (IGROV1 ovarian) of 0.384 µM and a GI50 (K-562 leukemia) of under 19.8 nM. It also gave a GI50 (KM12 colon) of 24.9 nM, a TGI (KM12 colon) of 0.217 µM and a GI50 (LOX IMVI melanoma) of under 19.6 nM. The TGI (LOX IMVI melanoma) was 0.0457 µM, the GI50 (M14 melanoma) was 21.2 nM and the TGI (M14 melanoma) was 78.4 nM. For the same molecule, the GI50 (MALME-3M melanoma) was under 13.1 nM, the TGI (MALME-3M melanoma) was 0.0172 µM and the GI50 (MCF7 breast) was under 16.3 nM. For the same molecule, the TGI (MCF7 breast) was 0.29 µM, the GI50 (MDA-MB-231 breast) was 129 nM and the TGI (MDA-MB-231 breast) was 0.641 µM. It also gave a GI50 (MDA-MB-435) of 22.2 nM, a TGI (MDA-MB-435) of 0.0785 µM and a GI50 (MDA-N) of under 19.5 nM. For the same molecule, the TGI (MDA-N) was 0.122 µM, the GI50 (MOLT-4 leukemia) was under 12.3 nM and the TGI (MOLT-4 leukemia) was 1.78 µM. The GI50 (NCI-H226 lung) was 16.7 nM, the TGI (NCI-H226 lung) was 0.0646 µM and the GI50 (NCI-H23 lung) was under 10.8 nM. The TGI (NCI-H23 lung) was under 0.0142 µM, the GI50 (NCI-H460 lung) was under 11.1 nM and the TGI (NCI-H460 lung) was 0.0174 µM. The GI50 (NCI-H522 lung) was under 14.7 nM, the TGI (NCI-H522 lung) was under 0.0312 µM and the GI50 (NCI/ADR-RES ovarian) was under 12.2 nM. For the same molecule, the TGI (NCI/ADR-RES ovarian) was under 0.0152 µM, the GI50 (OVCAR-3 ovarian) was under 13 nM and the TGI (OVCAR-3 ovarian) was under 0.0171 µM. The GI50 (OVCAR-4 ovarian) was under 12.4 nM, the TGI (OVCAR-4 ovarian) was 0.0176 µM and the GI50 (OVCAR-5 ovarian) was 14.7 nM. It also gave a TGI (OVCAR-5 ovarian) of 0.0311 µM, a GI50 (OVCAR-8 ovarian) of under 19.9 nM and a TGI (OVCAR-8 ovarian) of 0.046 µM. For the same molecule, the GI50 (PC-3 prostate) was under 14.4 nM, the TGI (PC-3 prostate) was 0.0437 µM and the GI50 (RPMI-8226 leukemia) was 16.7 nM. It also gave a TGI (RPMI-8226 leukemia) of 206 nM, a GI50 (RXF 393 renal) of under 12.9 nM and a TGI (RXF 393 renal) of under 0.0202 µM. The GI50 (SF-268 CNS) was under 14.2 nM, the TGI (SF-268 CNS) was 0.0236 µM and the GI50 (SF-295 CNS) was under 13.8 nM. It also gave a TGI (SF-295 CNS) of 0.0291 µM, a GI50 (SF-539 CNS) of under 13.2 nM and a TGI (SF-539 CNS) of under 0.0182 µM. For the same molecule, the GI50 (SK-MEL-2 melanoma) was 18.7 nM, the TGI (SK-MEL-2 melanoma) was 0.0754 µM and the GI50 (SK-MEL-28 melanoma) was 64.6 nM. It also gave a TGI (SK-MEL-28 melanoma) of 0.251 µM, a GI50 (SK-MEL-5 melanoma) of under 15.1 nM and a TGI (SK-MEL-5 melanoma) of 0.0267 µM. For the same molecule, the GI50 (SK-OV-3 ovarian) was 15.7 nM, the TGI (SK-OV-3 ovarian) was 0.0552 µM and the TGI (SN12C renal) was 0.0228 µM. The GI50 (SNB-19 CNS) was 29.6 nM, the TGI (SNB-19 CNS) was 177 nM and the TGI (SNB-75 CNS) was 0.099 µM. The GI50 (SR leukemia) was 22.1 nM, the TGI (SR leukemia) was 54.6 nM and the GI50 (SW-620 colon) was 20 nM. The TGI (SW-620 colon) was 0.702 µM, the GI50 (T-47D breast) was under 12.1 nM and the TGI (T-47D breast) was 0.0342 µM. For the same molecule, the GI50 (TK-10 renal) was under 10.5 nM, the TGI (TK-10 renal) was 0.0323 µM and the GI50 (U251 CNS) was 21.9 nM. The TGI (U251 CNS) was 68.3 nM, the GI50 (UACC-257 melanoma) was 23.7 nM and the TGI (UACC-257 melanoma) was 0.105 µM. The GI50 (UACC-62 melanoma) was 38.1 nM, the TGI (UACC-62 melanoma) was 0.173 µM and the GI50 (UO-31 renal) was under 12.4 nM. The TGI (UO-31 renal) was 0.0198 µM.

Molecule `c1ccc2c3c([nH]c2c1)C1c2[nH]c4ccccc4c2CCN1CC3` has a TGI (786-0 renal) of 25.8 µM, a TGI (A498 renal) of 34.4 µM and a TGI (A549 NSCLC) of 36.2 µM. For the same molecule, the TGI (ACHN renal) was 27.1 µM, the TGI (BT-549 breast) was 29.9 µM and the TGI (CAKI-1 renal) was 34.2 µM. For the same molecule, the TGI (CCRF-CEM leukemia) was over 100 µM, the TGI (COLO 205 colon) was 35.2 µM and the TGI (DU-145 prostate) was 26.1 µM. The TGI (EKVX NSCLC) was 20.2 µM, the TGI (HCC-2998 colon) was 25.9 µM and the TGI (HCT-116 colon) was 23.3 µM. For the same molecule, the TGI (HCT-15 colon) was 26.9 µM, the TGI (HL-60(TB) leukemia) was 66.5 µM and the TGI (HOP-62 NSCLC) was 27.8 µM. The TGI (HOP-92 NSCLC) was 15.4 µM, the TGI (HS 578T breast) was 44.7 µM and the TGI (HT29 colon) was 26.7 µM. It also gave a TGI (IGROV1 ovarian) of 31.1 µM, a TGI (KM12 colon) of 41.3 µM and a TGI (LOX IMVI melanoma) of 34.8 µM. For the same molecule, the TGI (MALME-3M melanoma) was 30 µM, the TGI (MCF7 breast) was 30.8 µM and the TGI (MDA-MB-231 breast) was 36.6 µM. It also gave a TGI (MDA-MB-435) of 33.5 µM, a TGI (MDA-N) of 35.6 µM and a TGI (MOLT-4 leukemia) of 42.1 µM. The TGI (NCI-H226 lung) was 37.6 µM, the TGI (NCI-H23 lung) was 28.2 µM and the TGI (NCI-H460 lung) was 24.3 µM. For the same molecule, the TGI (NCI-H522 lung) was 28.6 µM, the TGI (NCI/ADR-RES ovarian) was 5.47 µM and the TGI (OVCAR-3 ovarian) was 25.1 µM. The TGI (OVCAR-4 ovarian) was 18.7 µM, the TGI (OVCAR-5 ovarian) was 33.7 µM and the TGI (OVCAR-8 ovarian) was 26.9 µM. For the same molecule, the TGI (PC-3 prostate) was 27.1 µM, the TGI (RPMI-8226 leukemia) was over 100000 nM and the TGI (RXF 393 renal) was 27 µM. For the same molecule, the TGI (SF-268 CNS) was 30.3 µM, the TGI (SF-295 CNS) was 34.3 µM and the TGI (SF-539 CNS) was 31.3 µM. The TGI (SK-MEL-2 melanoma) was 64.2 µM, the TGI (SK-MEL-28 melanoma) was 31.7 µM and the TGI (SK-MEL-5 melanoma) was 28 µM. The TGI (SK-OV-3 ovarian) was 27.1 µM, the TGI (SN12C renal) was 32.6 µM and the TGI (SNB-75 CNS) was 38.8 µM. For the same molecule, the TGI (SR leukemia) was over 100000 nM, the TGI (SW-620 colon) was 45.5 µM and the TGI (T-47D breast) was 37.1 µM. The TGI (TK-10 renal) was 23.2 µM, the TGI (UACC-257 melanoma) was 28.6 µM and the TGI (UACC-62 melanoma) was 33.9 µM. The TGI (UO-31 renal) was 18.5 µM.
